According to PMC7369637, “Inhibition of Resistance-Refractory P. falciparum Kinase PKG Delivers Prophylactic, Blood Stage, and Transmission-Blocking Antiplasmodial Activity” (Cell Chemical Biology, 2020):
“And” between values parts separate entries of the source, which are not always exact repeats. Equal values may be shown once.

Columns and labels:
TKL3 cKD line = assay: Compound susceptibility assay using cKD lines (72 h, Renilla luciferase); format: cell-based, Plasmodium falciparum; conditions: TKL3 cKD line
Excerpt: (§1) To study the interaction between the compounds and PKG (PF3D7_1436600), AAT (PF3D7_1231400), CDPK1 (PF3D7_0217500), TKL3 (PF3D7_1349300), PP1 (PF3D7_1414400), and URP (PF3D7_0808300), cKD lines were generated by fusing the transcripts with RNA aptamers for translation regulation with the TetR/DOZI system ([Ganesan et al., 2016]). The right homology regions (RHR) of each target gene were amplified by PCR, using the primers listed in Table S1 (A), and along with the left homology regions (LHR) were fused to the re-codonized 3'-end region of the gene. Single guide RNA fragments were synthesized using the BioXP™ 3200 System (SGI-DNA; Table S1 (A)) and were cloned into the pSN054 vector ([Nasamu et al., 2019]) to install the C-terminal epitope tags V5 and 2x-hemagglutinin (HA) followed by a 10x RNA aptamer array and the TetR-DOZI expression cassette. This cassette also contained Blasticidin S-deaminase for selection in the parasites and the reporter gene Renilla luciferase (RLuc). The 3'-end of each target was re-codonized to avoid further modifications of the edited locus in the parasite via removal of the PAM site. Donor vector generation was carried out via Gibson assembly, and the final construct sequence was confirmed by restriction digests and Sanger sequencing.
(§2) Transfection into parasites was carried out by preloading erythrocytes with linearized vectors as described previously ([Deitsch et al., 2001]). Briefly, 50 μg of purified plasmid DNA was mixed with human RBC and subjected to 8 square wave electroporation pulses of 365 V for 1 ms each, separated by 0.1 s in a 0.2 cm cuvette. The plasmid DNA preloaded cells were inoculated with NF54 parasites expressing Cas9 and T7 RNA polymerase, maintained in 500 nM anhydrotetracycline (aTc, Sigma-Aldrich 37919), and drug selection with 2.5 μg/mL of Blasticidin (RPI Corp B12150-0.1) was initiated four days after transfection. Emergence of transfectants was monitored via Giemsa smears and RLuc measurements.
(§3) Synchronized ring-stage cKD parasites in varying aTc concentrations (high = 50 nM, intermediate = 1.5 nM, low = 1 nM, and no aTc) were distributed into the drug plate. No-drug treatment and treatment with a lethal dose of chloroquine (200 nM) served as reference controls.

AAT cKD line = assay: as above; format: cell-based, Plasmodium falciparum; conditions: AAT cKD line
Excerpt: as §1, §2, §3

PKG cKD line = assay: as above; format: cell-based, Plasmodium falciparum; conditions: PKG cKD line
Excerpt: as §1, §2, §3

URP cKD line = assay: as above; format: cell-based, Plasmodium falciparum
Excerpt: as §1, §2, §3

PP1 cKD line = assay: as above; format: cell-based, Plasmodium falciparum
Excerpt: as §1, §2, §3

CDPK1 cKD line = assay: as above; format: cell-based, Plasmodium falciparum; conditions: CDPK1 cKD line
Excerpt: as §1, §2, §3

Pf Dd2-B2 ABS parasites = assay: 72-h asexual blood stage (ABS) growth inhibition assay, Dd2-B2; format: cell-based, Plasmodium falciparum; conditions: Dd2-B2 wild-type, 72 h; read-out: Mean IC50, 72 h ABS activity
Protocol: (§4) Synchronicity was achieved using three rounds of sorbitol treatment on early rings, spaced 48 h apart, followed by magnetic purification of segmented schizonts following the final sorbitol treatment. Parasites were highly synchronous to within a 3 h window of development. Assays were repeated on at least three independent occasions (each with technical duplicates) and statistical significance was assessed using Mann Whitney U tests.

[1] = system: recombinant TKL3 kinase domain; assay: Radioactive in vitro kinase assay with recombinant TKL3 kinase domain; format: biochemical, Plasmodium falciparum; conditions: 20 μM compound
Protocol: Recombinant proteins were expressed in E. coli as previously described ([Abdi et al., 2010]). […] The cultures were then cooled to 20°C followed by induction of protein expression with 0.5 mM IPTG and further incubation at 20°C, 200 rpm for 16 h. Cultures were harvested by centrifugation at 4000g, 4°C for 10 min. Bacterial pellets were washed once in 1× PBS and were stored at −80°C. Cell pellets were resuspended in ice-cold Lysis Buffer (50 mM sodium phosphate, pH 8.0, 400 mM NaCl, 5 % (w/v) glycerol, 0.1 % (v/v) Triton X-100, 20 mM imidazole, 2 mM β-mercaptoethanol, 1× Roche protease inhibitor cocktail EDTA-free, 1 mg/ml lysozyme). Cells were disrupted by sonication. Protein was bound on a HisTrap HP column and eluted with a linear gradient of increasing imidazole concentrations. The peak fractions as determined by A280 trace were pooled together and further purified by size exclusion chromatography on a S200 gel filtration column equilibrated in 25 mM Tris pH 7.5, 100 mM NaCl, 5 % (w/v) glycerol, 1 mM DTT. Protein was pooled and concentrated. Final concentration was determined using a Bradford assay with a BSA protein standard.
Kinase assays containing 3 μg of recombinant kinase (WT or mutant) were performed in kinase assay buffer (25 mM Hepes, pH 7.5, 2 mM MnCl2, 10 mM β-glycerophosphate, 10 mM NaF, 25 μM ATP (containing 5 μCi [γ-^32P]-ATP-3000 mCi/mmol (PerkinElmer)), 5 μg substrate myelin basic protein (MBP) and ± 20 μM inhibitor) in a final reaction volume of 20 μl and incubated at 30°C for 30 min. Reactions were stopped by the addition of 5× Laemmli sample buffer and heated to 98°C for 5 min. Proteins were resolved by 4-12 % SDS-PAGE and stained in Coomassie Brilliant Blue. Kinase activity was detected by phosphorimaging. Imaging was performed on a Typhoon 5 Biomolecular imager (GE Healthcare Life Sciences).

sel. Dd2-B2 TKL3T1268R = assay: 72-h ABS assay, MMV030084-selected line; format: cell-based, Plasmodium falciparum
Protocol: as §4
The resulting MMV030084-resistant parasites were cloned by limiting dilution ([Baker et al., 2017]) to obtain genetically homogenous cultures for further phenotyping and whole-genome sequencing. A second round of […]. […] Drug susceptibility of resistant lines was assessed using a 72 h ABS assay as described above, and a Mann Whitney U test was applied to assess statistically significant differences.

[2] = biological target: T1, calcium-dependent protein kinase 1 (CDPK1) (PF3D7_0217500) (Plasmodium falciparum, UniProt P62344); assay: Competitive chemoproteomics in Pf lysates (Kinobeads / bead-immobilized compound); format: binding; conditions: lysates exposed to 40 μM of the same compound vs vehicle
T1 construct: endogenous in cells; host or cells: P. falciparum asexual blood-stage parasites (trophozoite stage)
T1 sequence (P62344 whole entry): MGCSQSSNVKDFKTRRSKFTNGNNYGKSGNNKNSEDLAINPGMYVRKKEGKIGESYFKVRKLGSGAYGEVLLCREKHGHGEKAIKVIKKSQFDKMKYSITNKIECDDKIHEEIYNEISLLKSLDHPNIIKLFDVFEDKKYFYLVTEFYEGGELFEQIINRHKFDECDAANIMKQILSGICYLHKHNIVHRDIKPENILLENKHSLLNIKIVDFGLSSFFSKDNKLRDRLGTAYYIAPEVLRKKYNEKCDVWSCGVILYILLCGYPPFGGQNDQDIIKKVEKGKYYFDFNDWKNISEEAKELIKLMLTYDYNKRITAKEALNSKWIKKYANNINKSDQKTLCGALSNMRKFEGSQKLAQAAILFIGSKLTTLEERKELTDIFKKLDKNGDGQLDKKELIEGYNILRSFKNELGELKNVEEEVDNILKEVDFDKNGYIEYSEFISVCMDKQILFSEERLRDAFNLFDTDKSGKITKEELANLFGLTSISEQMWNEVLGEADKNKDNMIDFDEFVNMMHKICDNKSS
Protocol: (§5) Pf protein extracts were prepared as described elsewhere ([Paquet et al., 2017]). Parasite cultures at the trophozoite stage were harvested, washed twice in RPMI 1640 medium (Gibco), and lysed by the addition of saponin to a final concentration of 0.1% for 5 min at room temperature. Free parasites were sedimented by centrifugation (3500 rpm for 10 min), washed three times with phosphate-buffered saline, and stored at −80°C. Parasites were resuspended in cell lysis buffer (50 mM tris-HCl (pH 7.5), 5% glycerol, 1.5 mM MgCl2, […], 1 mM […], 25 mM sodium fluoride, 0.8% NP-40, EDTA-free protease inhibitor cocktail tablets (Roche Diagnostics), and 1 mM DTT) and disrupted by sonication (Sonics Vibra-Cell) using two 30-s cycles on ice at half-amplitude. After centrifugation (140,000g for 1 h at 4°C), soluble proteins were recovered from the supernatants, and protein concentrations of each sample were estimated using the Lowry-based DC assay (Bio-Rad). Samples were stored at −80°C until use.
(§6) Kinobeads were prepared by immobilizing Bis-(III) indolyl-maleimide, purvalanol B, staurosporine and CZC8004, and the analogs of PD173955, sunitinib and vandetanib on NHS-activated Sepharose 4 beads (Amersham) ([Bantscheff et al., 2007]). […] The chemoproteomic affinity-capturing experiments were performed as previously described ([Bantscheff et al., 2011]). Briefly, beads were washed and equilibrated in lysis buffer (50 mM Tris-HCl, pH 7.4, 0.4 % Igepal-CA630, 1.5 mM MgCl2, 5 % Glycerol, 150 mM NaCl, 25 mM NaF, 1 mM Na3VO4, 1 mM DTT, and one cOmplete EDTA-free protease inhibitor tablet (Roche) per 25 mL). The beads were incubated at 4°C for 1 h with either 0.1 ml (0.3 mg) Pf blood stage extract or 0.5 mL (2.5 mg) human cell/tissue protein extract (a mixture of HEK-293, K-562, Hep G2 , and placental cells), which was pre-incubated with compound or DMSO (vehicle control). 10 samples were measured in parallel (TMT 10-plex ([Werner et al., 2014])) to generate values for the affinity of the beads to the bound proteins (“depletion” values, 4 samples) and to generate IC50 values (6 samples) in a single experiment. Apparent dissociation constants were determined after accounting for protein depletion by the beads ([Bantscheff et al., 2011]). Beads were transferred to Filter plates (Durapore PVDF membrane, Merck Millipore), washed with lysis buffer, and eluted with SDS sample buffer.
(§7) Proteins were digested according to a modified single pot solid-phase sample preparation (SP3) protocol ([Hughes et al., 2014]). Peptides were labeled with isobaric mass tags (Thermo Fisher Scientific, Waltham, MA) using 10-plex TMT reagents, enabling relative quantification of 10 conditions in a single experiment ([Werner et al., 2014]). The labeling reactions and LC-MS/MS measurements using Q Exactive Orbitrap or Orbitrap Fusion Lumos mass spectrometers (Thermo Fisher Scientific) were performed as described elsewhere ([Sridharan et al., 2019]). Mascot 2.4 (Matrix Science, Boston, MA) was used for protein identification by using a 10 parts per million mass tolerance for peptide precursors and 20 mD (HCD) mass tolerance for fragment ions. To create the fasta file for mascot searching, all proteins corresponding to the taxonomy ‘Plasmodium falciparum (isolate 3D7)’ were downloaded from Uniprot (release 20170621) and supplemented with common contaminant protein sequences of bovine serum albumin, porcine trypsin and mouse, rat, sheep and dog keratins. To assess the false discovery rate (FDR), “decoy” proteins (reverse of all protein sequences) were created and added to the database, resulting in a database containing a total of 14266 protein sequences, with 50% forward and 50% reverse. For peptide and protein identification of human proteins see ([Sridharan et al., 2019]). […]

[3] = biological target: putative amino acid transporter (AAT) (PF3D7_1231400) (Plasmodium falciparum, UniProt Q8I5A6); assay: as above; format: binding; conditions: lysates exposed to 40 μM of the same compound vs vehicle
Sequence of putative amino acid transporter (AAT) (PF3D7_1231400) (Q8I5A6 entry or part of it): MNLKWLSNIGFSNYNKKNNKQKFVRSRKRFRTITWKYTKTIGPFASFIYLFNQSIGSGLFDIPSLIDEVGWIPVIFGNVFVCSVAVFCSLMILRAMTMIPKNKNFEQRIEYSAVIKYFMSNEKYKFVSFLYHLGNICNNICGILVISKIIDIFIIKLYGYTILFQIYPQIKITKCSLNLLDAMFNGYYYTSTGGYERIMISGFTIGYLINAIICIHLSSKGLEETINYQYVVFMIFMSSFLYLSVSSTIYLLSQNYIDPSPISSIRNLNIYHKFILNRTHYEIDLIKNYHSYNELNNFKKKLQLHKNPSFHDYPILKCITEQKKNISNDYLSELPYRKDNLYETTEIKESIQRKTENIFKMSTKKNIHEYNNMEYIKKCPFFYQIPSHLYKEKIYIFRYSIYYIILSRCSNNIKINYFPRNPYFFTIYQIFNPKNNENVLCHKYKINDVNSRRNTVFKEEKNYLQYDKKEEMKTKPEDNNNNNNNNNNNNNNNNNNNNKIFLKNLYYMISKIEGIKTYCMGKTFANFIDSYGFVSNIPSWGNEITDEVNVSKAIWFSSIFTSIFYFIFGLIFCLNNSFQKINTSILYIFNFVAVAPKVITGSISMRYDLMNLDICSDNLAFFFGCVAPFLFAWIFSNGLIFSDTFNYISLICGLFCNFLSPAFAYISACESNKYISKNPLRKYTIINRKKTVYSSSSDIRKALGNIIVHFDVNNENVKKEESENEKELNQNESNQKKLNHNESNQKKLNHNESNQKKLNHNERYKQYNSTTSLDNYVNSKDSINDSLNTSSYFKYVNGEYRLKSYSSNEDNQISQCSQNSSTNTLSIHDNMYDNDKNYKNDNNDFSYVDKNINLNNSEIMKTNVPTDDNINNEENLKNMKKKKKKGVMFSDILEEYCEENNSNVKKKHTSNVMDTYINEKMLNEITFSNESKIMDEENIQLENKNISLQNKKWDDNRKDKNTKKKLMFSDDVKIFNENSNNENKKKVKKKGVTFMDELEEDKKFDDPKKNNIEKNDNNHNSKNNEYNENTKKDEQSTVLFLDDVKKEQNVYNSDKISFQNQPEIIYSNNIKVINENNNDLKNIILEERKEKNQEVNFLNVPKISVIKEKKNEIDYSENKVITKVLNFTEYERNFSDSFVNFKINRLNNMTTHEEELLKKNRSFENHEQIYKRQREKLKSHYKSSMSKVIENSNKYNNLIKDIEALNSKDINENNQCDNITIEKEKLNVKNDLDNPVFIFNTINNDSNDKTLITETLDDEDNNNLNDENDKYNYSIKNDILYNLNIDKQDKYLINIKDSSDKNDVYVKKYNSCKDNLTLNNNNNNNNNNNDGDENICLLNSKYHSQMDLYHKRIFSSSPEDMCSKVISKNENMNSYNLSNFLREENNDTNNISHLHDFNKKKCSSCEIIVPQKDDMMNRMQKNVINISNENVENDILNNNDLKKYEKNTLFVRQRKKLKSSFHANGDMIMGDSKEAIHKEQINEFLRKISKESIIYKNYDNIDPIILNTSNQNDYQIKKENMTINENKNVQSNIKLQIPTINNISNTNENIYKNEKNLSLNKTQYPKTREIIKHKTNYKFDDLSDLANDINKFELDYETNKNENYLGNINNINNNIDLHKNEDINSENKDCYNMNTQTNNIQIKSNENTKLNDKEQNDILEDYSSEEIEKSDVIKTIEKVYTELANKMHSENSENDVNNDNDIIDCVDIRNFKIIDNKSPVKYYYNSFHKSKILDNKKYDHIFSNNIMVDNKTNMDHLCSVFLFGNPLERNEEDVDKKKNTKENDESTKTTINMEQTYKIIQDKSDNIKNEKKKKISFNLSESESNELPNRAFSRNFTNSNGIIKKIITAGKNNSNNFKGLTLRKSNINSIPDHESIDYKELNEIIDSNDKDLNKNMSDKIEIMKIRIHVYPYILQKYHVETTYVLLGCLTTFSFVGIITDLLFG
Protocol: as §5, §6, §7

[4] = biological target: T2, cGMP-dependent protein kinase (PKG) (PF3D7_1436600) (Plasmodium falciparum, UniProt Q8I719); assay: as above; format: binding; conditions: lysates exposed to 40 μM of the same compound vs vehicle
T2 construct: The beads were incubated at 4°C for 1 h with either 0.1 ml (0.3 mg) Pf blood stage extract; endogenous in cells; host or cells: P. falciparum asexual blood-stage parasites (trophozoite stage), saponin-freed and lysed
T2 sequence (Q8I719 whole entry): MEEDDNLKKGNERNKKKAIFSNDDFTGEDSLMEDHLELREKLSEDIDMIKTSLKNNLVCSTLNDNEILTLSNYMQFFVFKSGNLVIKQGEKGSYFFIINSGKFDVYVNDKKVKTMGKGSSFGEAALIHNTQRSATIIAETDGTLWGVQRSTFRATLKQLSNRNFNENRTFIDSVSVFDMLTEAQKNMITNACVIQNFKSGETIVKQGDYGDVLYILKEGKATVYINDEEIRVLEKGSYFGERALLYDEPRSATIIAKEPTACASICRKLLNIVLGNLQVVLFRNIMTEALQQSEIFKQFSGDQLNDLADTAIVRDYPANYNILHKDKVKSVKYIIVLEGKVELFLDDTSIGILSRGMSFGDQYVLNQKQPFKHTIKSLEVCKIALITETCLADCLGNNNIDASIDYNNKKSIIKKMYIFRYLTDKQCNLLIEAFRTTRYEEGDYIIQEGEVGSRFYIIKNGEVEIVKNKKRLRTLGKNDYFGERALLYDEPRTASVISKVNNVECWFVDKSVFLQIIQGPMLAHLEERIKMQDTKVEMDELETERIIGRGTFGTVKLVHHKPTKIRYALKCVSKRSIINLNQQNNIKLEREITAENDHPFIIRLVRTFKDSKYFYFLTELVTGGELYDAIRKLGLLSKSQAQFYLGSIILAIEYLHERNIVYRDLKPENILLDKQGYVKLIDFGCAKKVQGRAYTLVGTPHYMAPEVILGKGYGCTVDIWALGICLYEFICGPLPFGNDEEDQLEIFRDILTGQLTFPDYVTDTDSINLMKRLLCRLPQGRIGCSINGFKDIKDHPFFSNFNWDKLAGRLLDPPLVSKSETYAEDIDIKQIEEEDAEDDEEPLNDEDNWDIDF
Protocol: Parasite cultures at the trophozoite stage were harvested, washed twice in RPMI 1640 medium (Gibco), and lysed by the addition of saponin to a final concentration of 0.1% for 5 min at room temperature. Free parasites were sedimented by centrifugation (3500 rpm for 10 min), washed three times with phosphate-buffered saline, and stored at −80°C. Parasites were resuspended in cell lysis buffer (50 mM tris-HCl (pH 7.5), 5% glycerol, 1.5 mM MgCl2, 1.5 mM NaCl, 1 mM Na3PO4, 25 mM sodium fluoride, 0.8% NP-40, EDTA-free protease inhibitor cocktail tablets (Roche Diagnostics), and 1 mM DTT) and disrupted by sonication (Sonics Vibra-Cell) using two 30-s cycles on ice at half-amplitude. […]
Kinobeads were prepared by immobilizing Bis-(III) indolyl-maleimide, purvalanol B, staurosporine and CZC8004, and the analogs of PD173955, sunitinib and vandetanib on NHS-activated Sepharose 4 beads (Amersham) ([Bantscheff et al., 2007]). […] 10 samples were measured in parallel (TMT 10-plex ([Werner et al., 2014])) to generate values for the affinity of the beads to the bound proteins (“depletion” values, 4 samples) and to generate IC50 values (6 samples) in a single experiment. Apparent dissociation constants were determined after accounting for protein depletion by the beads ([Bantscheff et al., 2011]). […]

CC(C)(CN)c1nc(-c2ccc(Cl)c(O)c2)c(-c2ccnc(N)n2)[nH]1 [MMV030734]
IC50 (TKL3 cKD line; Control, [aTc] used 50.0): 37.5 nM | IC50 (TKL3 cKD line; KD, [aTc] used 0.0): 80.8 nM | IC50 (AAT cKD line; Control, [aTc] used 50.0): 42.6 nM | IC50 (AAT cKD line; KD, [aTc] used 0.0): 18.5 nM | IC50 (PKG cKD line; Control, [aTc] used 50.0): 20.8 nM | IC50 (PKG cKD line; KD, [aTc] used 1.0): 8.4 nM | IC50 (URP cKD line; Control, [aTc] used 50.0): 34 nM | IC50 (URP cKD line; KD, [aTc] used 0.0): 44.5 nM | IC50 (PP1 cKD line; Control, [aTc] used 50.0): 29.5 nM | IC50 (PP1 cKD line; KD, [aTc] used 1.5): 36.7 nM | IC50 (CDPK1 cKD line; Control, [aTc] used 50.0): 21.1 nM | IC50 (CDPK1 cKD line; KD, [aTc] used 1.0): 18 nM | IC50 (Pf Dd2-B2 ABS parasites): 65 nM and 65.3 nM | Reduction in TKL3 kinase activity [1]: no reduction | IC50 (sel. Dd2-B2 TKL3T1268R): 197 nM

CC(C)(C)CNCC(C)(C)c1nc(-c2ccc(Cl)c(O)c2)c(-c2ccncc2)[nH]1 [TCMDC-140549]
IC50 (Pf Dd2-B2 ABS parasites): 210 nM | IC50 (sel. Dd2-B2 TKL3T1268R): 287 nM

CC(C)(CN)c1nc(-c2ccc(Br)c(O)c2)c(-c2ccncc2)[nH]1 [TCMDC-140680]
IC50 (Pf Dd2-B2 ABS parasites): 85.9 nM | IC50 (sel. Dd2-B2 TKL3T1268R): 249 nM

CN1CCC=C(C(=O)NCC(C)(C)c2nc(-c3ccc(Cl)c(O)c3)c(-c3ccncc3)[nH]2)C1 [TCMDC-140700]
IC50 (Pf Dd2-B2 ABS parasites): 394 nM | IC50 (sel. Dd2-B2 TKL3T1268R): 1190 nM

CNCC(C)(C)c1nc(-c2ccc(Cl)c(O)c2)c(-c2ccncc2)[nH]1.Cl [TCMDC-140762]
IC50 (Pf Dd2-B2 ABS parasites): 187 nM | Reduction in TKL3 kinase activity [1]: no reduction | IC50 (sel. Dd2-B2 TKL3T1268R): 443 nM

CC(C)(CNC(=O)[C@H]1CCCN1)c1nc(-c2ccc(Cl)c(O)c2)c(-c2ccncc2)[nH]1 [TCMDC-141060]
IC50 (Pf Dd2-B2 ABS parasites): 180 nM | IC50 (sel. Dd2-B2 TKL3T1268R): 590 nM

CC(C)(CNC(=O)[C@H]1CCCCN1)c1nc(-c2ccc(Cl)c(O)c2)c(-c2ccncc2)[nH]1 [TCMDC-141070]
IC50 (Pf Dd2-B2 ABS parasites): 186 nM | IC50 (sel. Dd2-B2 TKL3T1268R): 717 nM

CC(C)(CNC(=O)[C@@H]1CCCCN1)c1nc(-c2ccc(Cl)c(O)c2)c(-c2ccncc2)[nH]1.Cl [TCMDC-141079]
IC50 (Pf Dd2-B2 ABS parasites): 250 nM | Reduction in TKL3 kinase activity [1]: no reduction | IC50 (sel. Dd2-B2 TKL3T1268R): 771 nM

Cl.NCC1(c2nc(-c3ccc(Cl)c(O)c3)c(-c3ccncc3)[nH]2)CCCCC1 [TCMDC-141154]
CDPK1 pull-down by bead-bound compound [2]: pulled down | AAT pull-down by bead-bound compound [3]: pulled down | PKG pull-down by bead-bound compound [4]: pulled down | IC50 (Pf Dd2-B2 ABS parasites): 140 nM | IC50 (sel. Dd2-B2 TKL3T1268R): 369 nM
